Our source for the IC50 values is US7605168B2 (Plexxikon, Inc., priority 2004, dated 2009).

In assay [1] the target is T1, PDE4D: catalytic domain S316-V692 (Homo sapiens, UniProt Q08499).
T1 construct: pET15S PDE4D S316-V692-X; His6 (N, cleaved yes); thrombin cleavage site (N, cleaved yes); made in house; host or cells: E. coli BL21 (DE3) RIL
The experiment in a line: PDE4 IC50 determination by Scintillation Proximity Assay (SPA), PDE4D catalytic domain. It is filed as biochemical. To be noted: [3H]cAMP SPA, 30 min at 30° C. On the technique in general: SPA uses beads or plates that emit light when radiolabelled molecules are held near them.

Assay [2] addresses T2, PDE4B: catalytic domain of human PDE4B from S152-S528 (Homo sapiens, UniProt Q07343).
T2 construct: The catalytic domain of human PDE4B from S152-S528; His6 (N, cleaved yes); thrombin cleavage site (N, cleaved yes); made in house; host or cells: E. coli BL21 (DE3) RIL
The assay can be described thus: PDE4 IC50 determination by Scintillation Proximity Assay (SPA), PDE4B catalytic domain. It counts as biochemical. Particulars: [3H]cAMP SPA, 30 min at 30° C. In short, it runs like this:
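Human PDE4B catalytic domain (80 ng/ml) hydrolysed [3H]cAMP in 50 mM Tris pH 7.5, 8.3 mM MgCl, 1.7 mM EGTA, 0.01% BSA for 30 min at 30 °C. Reaction was stopped with yttrium silicate SPA beads in 18 mM ZnSO4, and bound [3H]AMP was counted by scintillation. IC50 came from non-linear regression.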

pIC50: −log10 of the molar value.

T2 sequence (Q07343 324-700): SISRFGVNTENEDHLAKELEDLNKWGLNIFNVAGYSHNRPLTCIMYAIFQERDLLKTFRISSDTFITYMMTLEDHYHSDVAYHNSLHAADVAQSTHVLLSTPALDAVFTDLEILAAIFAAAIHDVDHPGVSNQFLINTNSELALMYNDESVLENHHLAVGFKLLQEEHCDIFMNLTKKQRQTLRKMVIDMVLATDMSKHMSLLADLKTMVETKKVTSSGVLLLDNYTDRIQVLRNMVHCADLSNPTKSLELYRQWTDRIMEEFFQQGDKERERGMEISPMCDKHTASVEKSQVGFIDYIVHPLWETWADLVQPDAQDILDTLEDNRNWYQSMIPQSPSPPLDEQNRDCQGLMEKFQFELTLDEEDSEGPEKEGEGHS
T1 sequence (Q08499 380-756): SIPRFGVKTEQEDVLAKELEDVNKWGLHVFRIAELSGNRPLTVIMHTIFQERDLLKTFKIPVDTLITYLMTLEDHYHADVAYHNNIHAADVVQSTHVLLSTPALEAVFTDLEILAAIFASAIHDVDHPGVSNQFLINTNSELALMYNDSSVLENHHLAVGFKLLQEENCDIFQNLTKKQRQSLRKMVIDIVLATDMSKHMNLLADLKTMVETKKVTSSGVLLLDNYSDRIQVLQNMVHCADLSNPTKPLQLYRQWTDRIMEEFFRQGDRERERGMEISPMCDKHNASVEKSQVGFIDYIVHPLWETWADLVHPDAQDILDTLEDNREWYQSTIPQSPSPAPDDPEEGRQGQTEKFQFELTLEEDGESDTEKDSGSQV

As to `CCOc1ccc2ccccc2c1C(=O)n1cc(-c2ccc(OC)c(OC)c2)c2cccnc21` [Compound 52, [3-(3,4-Dimethoxy-phenyl)-pyrrolo[2,3-b]pyridin-1-yl]-(2-ethoxy-naphthalen-1-yl)-methanone], the values for the pIC50 in assay [1] and in assay [2] were ≥ 5.00 and > 5.00, respectively.
As to `CCOc1ccccc1C(=O)n1cc(-c2ccc(OC)c(OC)c2)c2cccnc21` [Compound 61, [3-(3,4-Dimethoxy-phenyl)-pyrrolo[2,3-b]pyridin-1-yl]-(2-ethoxy-phenyl)-methanone-amide], the pIC50 in assay [1] is ≥ 5.00; in assay [2], > 5.00.

As usually defined, the pIC50 is the negative decadic logarithm of the IC50, by convention in mol/L.
